How the values were obtained:
Assay type in all cases: cell-based
[1] = tested on: Propionibacterium acnes (ATCC 6919); assay: Microbe count after incubation, carried out in accordance with Example 1; details: for Δlog: t24 h vs t0; for Final microbe count: as Example 1, sample 2.0% in water/ethanol (12% of ethanol), initial count 8.3 × 10^4
Protocol: (§1) For sample preparation, substances I-1 and I-5 being investigated are homogeneously dispersed in an amount of 2.0% in a water/ethanol mixture (12% of ethanol) (=sample). A suspensions of Staphylococcus epidermidis (ATCC 12228) having an optical density of 1.0 in CASO broth (Merck 1.05459) is diluted 1:10000 with CASO broth. 500 μl of sample are added to […] of microorganism suspension, and the mixture is incubated at 35° C. for 24 h or 48 h. After the incubation, the test batches are diluted to −6 in 10 unit steps, and 0.1 ml of each is plated-out on CASO agar (Merck 1.05458) and incubated at 35° C. for 24 h.
(§2) In order to determine the initial microbe count, 0.1 ml of the bacteria suspension used are plated-out on CASO agar (Merck 1.05458) and incubated at 35° C. for 24 h.
(§3) The colonies are subsequently counted, and the microbe count per ml is determined compared with the negative control (12% of ethanol in water).
The experiment is carried out in accordance with Example 1. Instead of the action on Staphylococcus epidermidis, the action of substances I-1 and I-5 on the test microbe Propionibacterium acnes is investigated.
(§4) The concentrations indicated are the final use concentrations. In order to prepare the stock solution, double the final concentration are prepared in the solvent indicated. This is subsequently diluted 1:2 with the corresponding microbe suspension. In the case of Aspergillus brasiliensis, the microbe count determination is exceptionally carried out after 48 h, in the case of Malassezia furfur after 72 h.

Malassezia furfur = assay: Microbe count after incubation (Example 3); details: 1.0% final conc., H2O
Protocol: as §1, §2, §3, §4

Aspergillus brasiliensis = assay: Microbe count after incubation (Example 3); details: 1.0% final conc., H2O (12% of ethanol)
Protocol: as §1, §2, §3, §4

Candida albicans = assay: Microbe count after incubation (Example 3); details: 1.0% final conc., H2O (12% of ethanol)
Protocol: as §1, §2, §3, §4

Salmonella enterica = assay: Microbe count after incubation (Example 3); details: 0.5% final conc., H2O
Protocol: as §1, §2, §3, §4

Staphylococcus aureus = assay: Microbe count after incubation (Example 3); details: 1.0% final conc., H2O (12% of ethanol)
Protocol: as §1, §2, §3, §4

Corynebacterium xerosis = assay: Microbe count after incubation (Example 3); details: 0.5% final conc., H2O
Protocol: as §1, §2, §3, §4

[2] = tested on: Staphylococcus epidermidis (ATCC 12228); assay: Determination of the bacteriostatic action, microbe count after incubation; details: for Final microbe count: sample 2.0% in water/ethanol (12% of ethanol), mixed 1:1 with suspension, 35° C., 24 h or 48 h, initial count 1.6 × 10^4
Protocol: as §1, §2, §3, §4

## OC1CCC(C(O)C2CCCCC2)CC1 (stereo not shown) [Substance I-1, 4-(cyclohexylhydroxymethyl)cyclohexanol]
[1]; 0.25% final conc., H2O, t0 5.4 × 10^5
  Microbe count t24 h: 2.4 × 10^5
[1]; 0.25% final conc., H2O
  Δlog: −0.35
[1]; 0.5% final conc., H2O (12% of ethanol), t0 8.3 × 10^4
  Microbe count t24 h: 0
[1]; 0.5% final conc., H2O (12% of ethanol)
  Δlog: −4.92
[1]
  Final microbe count: 0 CFU/ml
Malassezia furfur; count after 72 h, t0 4.0 × 10^2
  Microbe count t24 h: 0
Malassezia furfur; count after 72 h vs t0
  Δlog: −2.60
Aspergillus brasiliensis; count after 48 h, t0 8.0 × 10^2
  Microbe count t24 h: 0
Aspergillus brasiliensis; count after 48 h vs t0
  Δlog: −2.90
Candida albicans; t0 6.0 × 10^3
  Microbe count t24 h: 0
Candida albicans; t24 h vs t0
  Δlog: −3.78
Salmonella enterica; t0 1.0 × 10^6
  Microbe count t24 h: 5.1 × 10^6
Salmonella enterica; t24 h vs t0
  Δlog: +0.71
Staphylococcus aureus; t0 7.2 × 10^4
  Microbe count t24 h: 0
Staphylococcus aureus; t24 h vs t0
  Δlog: −4.86
Corynebacterium xerosis; t0 1.0 × 10^6
  Microbe count t24 h: 1.3 × 10^6
Corynebacterium xerosis; t24 h vs t0
  Δlog: +0.11
[2]; 0.5% final conc., H2O (12% of ethanol), t0 1.6 × 10^4
  Microbe count t24 h: 7.4 × 10^3
[2]; 0.5% final conc., H2O (12% of ethanol), t24 h vs t0
  Δlog: −0.34
[2]
  Final microbe count: 7.4 × 10^3 CFU/ml

## COC1CCC(C(O)C2CCCCC2)C(O)C1 (stereo not shown) [Substance I-5, 2-(cyclohexylhydroxymethyl)-5-methoxy-cyclohexanol]
[1]
  Final microbe count: 0 CFU/ml
[2]
  Final microbe count: 7.0 × 10^3 CFU/ml
